This note sets out measurements from paper PMC8225200, “Epipregnanolone as a Positive Modulator of GABAA Receptor in Rat Cerebellar and Hippocampus Neurons” (Biomolecules, 2021).

One may read the EC50 as the midpoint of the concentration-response curve. A low value points to greater potency.

Assay in all cases: whole-cell patch clamp, GABA-induced chloride current
Common to all, as to type: cell-based
For orientation: The patch-clamp technique gives a direct electrical read-out from membranes.

In experiment [1] the test system is T1, GABAA receptor (native, rat hippocampal CA3 pyramidal neurons).
T1 construct: gene Gabra1; native heteropentameric receptors in acutely isolated CA3 pyramidal neurons; subunit composition not determined
Conditions: positive allosteric modulator; 2 µM GABA co-applied; pH 7.4; holding -70 mV.

The subject of experiment [2] is T2, GABAA receptor (native, rat cerebellar Purkinje cells).
T2 construct: gene Gabra1; native heteropentameric receptors in acutely isolated Purkinje neurons
Conditions: positive allosteric modulator, 2 µM GABA co-applied, pH 7.4, holding -70 mV.

Experiment [3] shares this test system. The following applies: weak inhibition; 2 µM GABA co-applied; pH 7.4; holding -70 mV.

Consider `CC(=O)[C@H]1CC[C@H]2[C@@H]3CC[C@@H]4C[C@@H](O)CC[C@]4(C)[C@H]3CC[C@]12C` [Epi, 3β-hydroxy-5β-pregnan-20-one], for which the results for the EC50 in experiment [1] and in experiment [2] were 9.3 ± 2.9 µM and 5.7 ± 1.9 µM, respectively.

On to `CC(=O)[C@H]1CC[C@H]2[C@@H]3CC[C@H]4C[C@H](O)CC[C@]4(C)[C@H]3CC[C@]12C` [ALLO, 3α-hydroxy-5α-pregnan-20-one], for which a half-maximal effect in experiment [2] (fit to rising phase of bell-shaped curve) (EC50) was put at 0.29 ± 0.06 µM.

Turning to `CC(=O)[C@H]1CC[C@H]2[C@@H]3CC[C@H]4C[C@@H](O)CC[C@]4(C)[C@H]3CC[C@]12C` [Iso, 3β-hydroxy-5α-pregnan-20-one], the “% of control current at 100 μM” value in experiment [3] is listed as 84 ± 4%.
